Reference: ChEMBL document CHEMBL4507261, “Data for DCP probe A-192621” (2021)

What was measured:
[1] = target: T1, Alpha-1A adrenergic receptor (Homo sapiens) (UniProt P35348); experiment: Alpha1A (h) Eurofins-Cerep binding assay; set-up: ligand concentration 0.1 nM; conditions: filed as antagonist, Compound concentration 10.0 uM
T1 sequence (whole entry): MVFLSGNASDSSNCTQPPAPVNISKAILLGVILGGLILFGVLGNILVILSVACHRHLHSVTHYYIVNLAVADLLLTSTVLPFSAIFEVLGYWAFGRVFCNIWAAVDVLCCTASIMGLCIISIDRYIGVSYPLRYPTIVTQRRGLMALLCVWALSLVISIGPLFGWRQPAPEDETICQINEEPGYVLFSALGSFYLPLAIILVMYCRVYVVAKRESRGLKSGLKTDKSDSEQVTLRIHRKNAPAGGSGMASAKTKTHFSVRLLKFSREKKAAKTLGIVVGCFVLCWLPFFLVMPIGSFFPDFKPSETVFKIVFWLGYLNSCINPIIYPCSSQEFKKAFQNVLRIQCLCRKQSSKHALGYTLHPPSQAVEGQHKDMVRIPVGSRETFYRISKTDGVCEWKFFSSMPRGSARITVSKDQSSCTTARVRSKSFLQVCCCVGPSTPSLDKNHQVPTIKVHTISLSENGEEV

[2] = target: Beta-1 adrenergic receptor (Homo sapiens) (UniProt P08588); experiment: Beta1 (h) Eurofins-Cerep binding assay; set-up: ligand concentration 0.3 nM; conditions: filed as agonist, Compound concentration 10.0 uM
[3] = target: T2, Muscarinic acetylcholine receptor M2 (Homo sapiens) (UniProt P08172); experiment: M2 (h) Eurofins-Cerep binding assay; set-up: ligand concentration 2 nM; conditions: filed as antagonist, Compound concentration 10.0 uM
T2 sequence (whole entry): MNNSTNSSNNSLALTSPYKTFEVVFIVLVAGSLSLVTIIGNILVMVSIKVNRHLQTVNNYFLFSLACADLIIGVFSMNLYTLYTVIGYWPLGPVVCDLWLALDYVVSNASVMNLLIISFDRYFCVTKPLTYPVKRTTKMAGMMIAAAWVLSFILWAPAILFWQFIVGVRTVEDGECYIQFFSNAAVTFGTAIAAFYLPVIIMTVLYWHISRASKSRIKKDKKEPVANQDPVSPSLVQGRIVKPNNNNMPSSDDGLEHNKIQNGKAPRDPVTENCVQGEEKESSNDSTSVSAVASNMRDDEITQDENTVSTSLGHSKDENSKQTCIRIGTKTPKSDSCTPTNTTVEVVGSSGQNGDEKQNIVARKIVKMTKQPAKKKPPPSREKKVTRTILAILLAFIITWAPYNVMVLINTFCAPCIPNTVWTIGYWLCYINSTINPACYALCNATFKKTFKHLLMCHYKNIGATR

[4] = target: Sodium-dependent serotonin transporter (Homo sapiens) (UniProt P31645); experiment: 5-HT transporter (h) Eurofins-Cerep binding assay; set-up: ligand concentration 2 nM; conditions: filed as antagonist, Compound concentration 10.0 uM
Sequence of Sodium-dependent serotonin transporter (Homo sapiens) (P31645 whole entry, looked up): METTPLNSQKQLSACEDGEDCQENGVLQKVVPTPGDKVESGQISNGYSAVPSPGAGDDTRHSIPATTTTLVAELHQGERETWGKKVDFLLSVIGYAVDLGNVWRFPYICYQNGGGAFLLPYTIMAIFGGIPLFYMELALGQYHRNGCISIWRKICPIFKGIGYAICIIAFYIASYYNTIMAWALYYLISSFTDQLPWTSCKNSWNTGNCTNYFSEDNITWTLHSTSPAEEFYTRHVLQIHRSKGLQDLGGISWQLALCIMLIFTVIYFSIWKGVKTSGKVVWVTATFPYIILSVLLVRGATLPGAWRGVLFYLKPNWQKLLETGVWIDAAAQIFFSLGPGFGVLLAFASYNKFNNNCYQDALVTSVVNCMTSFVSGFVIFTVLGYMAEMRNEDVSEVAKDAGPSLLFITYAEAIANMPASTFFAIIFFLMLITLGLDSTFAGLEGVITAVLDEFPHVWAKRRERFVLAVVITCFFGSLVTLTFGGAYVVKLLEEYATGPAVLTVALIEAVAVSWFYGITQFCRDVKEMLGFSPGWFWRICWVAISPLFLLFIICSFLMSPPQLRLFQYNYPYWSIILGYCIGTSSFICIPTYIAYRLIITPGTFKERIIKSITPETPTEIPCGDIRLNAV

[5] = target: 5'-AMP-activated protein kinase catalytic subunit alpha-1 (Homo sapiens) (UniProt Q13131); conditions: Compound concentration 1000.0 nM
[6] = target: Serine/threonine-protein kinase B-raf (Homo sapiens) (UniProt P15056); conditions: Compound concentration 1000.0 nM
[7] = target: Serine/threonine-protein kinase BRSK1 (Homo sapiens) (UniProt Q8TDC3); conditions: Compound concentration 1000.0 nM
[8] = target: Cyclin-dependent kinase 5 (Homo sapiens) (UniProt Q00535); conditions: Compound concentration 1000.0 nM
[9] = target: Cyclin-dependent kinase-like 2 (Homo sapiens) (UniProt Q92772); conditions: Compound concentration 1000.0 nM
[10] = target: Dual specificity protein kinase CLK4 (Homo sapiens) (UniProt Q9HAZ1); conditions: Compound concentration 1000.0 nM
Sequence of Dual specificity protein kinase CLK4 (Homo sapiens) (Q9HAZ1 whole entry, looked up): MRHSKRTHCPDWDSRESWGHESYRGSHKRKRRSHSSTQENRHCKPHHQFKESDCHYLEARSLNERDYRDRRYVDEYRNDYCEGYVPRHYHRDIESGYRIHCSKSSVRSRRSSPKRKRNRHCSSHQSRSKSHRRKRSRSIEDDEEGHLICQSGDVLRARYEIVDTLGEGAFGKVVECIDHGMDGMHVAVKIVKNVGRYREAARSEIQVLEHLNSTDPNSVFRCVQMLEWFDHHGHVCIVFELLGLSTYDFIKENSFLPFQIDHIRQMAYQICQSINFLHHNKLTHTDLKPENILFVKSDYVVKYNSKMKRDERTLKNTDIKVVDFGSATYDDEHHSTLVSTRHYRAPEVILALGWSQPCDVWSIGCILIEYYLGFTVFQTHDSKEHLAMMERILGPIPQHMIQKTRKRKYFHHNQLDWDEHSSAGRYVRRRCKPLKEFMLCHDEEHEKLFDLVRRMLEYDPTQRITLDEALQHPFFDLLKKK

[11] = tested on: Epidermal growth factor receptor (Homo sapiens), P00533 [L858R,T790M]; conditions: Compound concentration 1000.0 nM
[12] = target: Receptor-type tyrosine-protein kinase FLT3 (Homo sapiens) (UniProt P36888); conditions: Compound concentration 1000.0 nM
[13] = target: Beta-adrenergic receptor kinase 1 (Homo sapiens) (UniProt P25098); conditions: Compound concentration 1000.0 nM
Sequence of Beta-adrenergic receptor kinase 1 (Homo sapiens) (P25098 whole entry): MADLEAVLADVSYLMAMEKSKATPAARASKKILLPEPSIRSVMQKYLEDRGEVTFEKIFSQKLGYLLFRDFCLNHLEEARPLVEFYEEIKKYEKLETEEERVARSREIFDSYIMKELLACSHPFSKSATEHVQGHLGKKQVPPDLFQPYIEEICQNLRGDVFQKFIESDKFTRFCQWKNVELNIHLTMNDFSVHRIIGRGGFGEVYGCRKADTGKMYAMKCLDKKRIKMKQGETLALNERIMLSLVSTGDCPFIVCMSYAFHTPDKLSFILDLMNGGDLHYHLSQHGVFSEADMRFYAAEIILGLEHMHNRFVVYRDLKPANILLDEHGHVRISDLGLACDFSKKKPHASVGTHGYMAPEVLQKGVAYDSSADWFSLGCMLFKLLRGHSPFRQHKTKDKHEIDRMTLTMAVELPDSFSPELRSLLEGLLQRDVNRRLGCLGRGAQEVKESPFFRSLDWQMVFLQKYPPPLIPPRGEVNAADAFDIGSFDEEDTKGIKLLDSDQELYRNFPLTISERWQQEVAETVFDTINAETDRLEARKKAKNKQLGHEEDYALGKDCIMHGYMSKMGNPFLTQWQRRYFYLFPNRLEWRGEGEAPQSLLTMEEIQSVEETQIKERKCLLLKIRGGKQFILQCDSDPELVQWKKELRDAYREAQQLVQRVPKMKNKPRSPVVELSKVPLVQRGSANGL

[14] = target: G protein-coupled receptor kinase 3 (Homo sapiens) (UniProt P35626); conditions: Compound concentration 1000.0 nM
[15] = target: Glycogen synthase kinase-3 alpha (Homo sapiens) (UniProt P49840); conditions: Compound concentration 1000.0 nM
[16] = target: Insulin-like growth factor 1 receptor (Homo sapiens) (UniProt P08069); conditions: Compound concentration 1000.0 nM
[17] = target: Interleukin-1 receptor-associated kinase 3 (Homo sapiens) (UniProt Q9Y616); conditions: Compound concentration 1000.0 nM
[18] = target: Tyrosine-protein kinase JAK1 (Homo sapiens) (UniProt P23458); conditions: Compound concentration 1000.0 nM
[19] = tested on: Mast/stem cell growth factor receptor Kit (Homo sapiens), P10721 [V559D,T670I]; conditions: Compound concentration 1000.0 nM
Sequence of Mast/stem cell growth factor receptor Kit (Homo sapiens), P10721 [V559D,T670I] (P10721 whole entry V559D/T670I): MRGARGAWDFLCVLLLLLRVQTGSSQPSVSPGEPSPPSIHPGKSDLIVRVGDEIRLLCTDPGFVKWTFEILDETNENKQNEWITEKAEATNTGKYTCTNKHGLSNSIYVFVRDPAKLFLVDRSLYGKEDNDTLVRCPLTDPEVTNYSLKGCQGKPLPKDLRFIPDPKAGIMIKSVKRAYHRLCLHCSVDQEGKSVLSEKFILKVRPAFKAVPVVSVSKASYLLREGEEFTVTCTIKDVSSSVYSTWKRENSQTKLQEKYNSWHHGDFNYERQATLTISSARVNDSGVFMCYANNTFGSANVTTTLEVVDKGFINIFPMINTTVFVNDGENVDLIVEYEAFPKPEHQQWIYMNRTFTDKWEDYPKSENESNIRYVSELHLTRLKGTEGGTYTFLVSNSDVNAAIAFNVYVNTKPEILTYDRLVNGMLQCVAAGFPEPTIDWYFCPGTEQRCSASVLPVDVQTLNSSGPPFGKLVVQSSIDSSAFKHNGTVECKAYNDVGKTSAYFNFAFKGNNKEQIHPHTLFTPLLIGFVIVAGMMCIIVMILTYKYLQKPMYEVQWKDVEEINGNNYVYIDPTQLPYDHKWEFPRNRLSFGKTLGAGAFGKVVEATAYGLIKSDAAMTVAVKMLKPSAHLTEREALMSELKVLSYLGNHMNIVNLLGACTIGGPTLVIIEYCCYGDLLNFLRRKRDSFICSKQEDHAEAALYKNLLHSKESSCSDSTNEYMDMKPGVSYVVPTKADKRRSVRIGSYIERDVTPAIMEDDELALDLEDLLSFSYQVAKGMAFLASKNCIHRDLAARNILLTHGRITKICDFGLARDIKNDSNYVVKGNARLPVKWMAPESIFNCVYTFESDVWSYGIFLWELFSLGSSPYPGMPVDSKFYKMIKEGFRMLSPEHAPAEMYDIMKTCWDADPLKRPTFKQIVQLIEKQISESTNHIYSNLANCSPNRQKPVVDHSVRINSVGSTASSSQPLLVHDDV

[20] = target: Mitogen-activated protein kinase kinase kinase 3 (Homo sapiens) (UniProt Q99759); conditions: Compound concentration 1000.0 nM
[21] = target: Mitogen-activated protein kinase kinase kinase kinase 5 (Homo sapiens) (UniProt Q9Y4K4); conditions: Compound concentration 1000.0 nM
[22] = target: Tyrosine-protein kinase Mer (Homo sapiens) (UniProt Q12866); conditions: Compound concentration 1000.0 nM
[23] = tested on: Hepatocyte growth factor receptor (Homo sapiens), P08581 [M1250T]; conditions: Compound concentration 1000.0 nM
[24] = target: Myosin light chain kinase 2, skeletal/cardiac muscle (Homo sapiens) (UniProt Q9H1R3); conditions: Compound concentration 1000.0 nM
[25] = target: Serine/threonine-protein kinase 38 (Homo sapiens) (UniProt Q15208); conditions: Compound concentration 1000.0 nM
[26] = tested on: Phosphatidylinositol 4,5-bisphosphate 3-kinase catalytic subunit alpha isoform (Homo sapiens), P42336 [Q546K]; conditions: Compound concentration 1000.0 nM
Sequence of Phosphatidylinositol 4,5-bisphosphate 3-kinase catalytic subunit alpha isoform (Homo sapiens), P42336 [Q546K] (P42336 whole entry Q546K, canonical isoform): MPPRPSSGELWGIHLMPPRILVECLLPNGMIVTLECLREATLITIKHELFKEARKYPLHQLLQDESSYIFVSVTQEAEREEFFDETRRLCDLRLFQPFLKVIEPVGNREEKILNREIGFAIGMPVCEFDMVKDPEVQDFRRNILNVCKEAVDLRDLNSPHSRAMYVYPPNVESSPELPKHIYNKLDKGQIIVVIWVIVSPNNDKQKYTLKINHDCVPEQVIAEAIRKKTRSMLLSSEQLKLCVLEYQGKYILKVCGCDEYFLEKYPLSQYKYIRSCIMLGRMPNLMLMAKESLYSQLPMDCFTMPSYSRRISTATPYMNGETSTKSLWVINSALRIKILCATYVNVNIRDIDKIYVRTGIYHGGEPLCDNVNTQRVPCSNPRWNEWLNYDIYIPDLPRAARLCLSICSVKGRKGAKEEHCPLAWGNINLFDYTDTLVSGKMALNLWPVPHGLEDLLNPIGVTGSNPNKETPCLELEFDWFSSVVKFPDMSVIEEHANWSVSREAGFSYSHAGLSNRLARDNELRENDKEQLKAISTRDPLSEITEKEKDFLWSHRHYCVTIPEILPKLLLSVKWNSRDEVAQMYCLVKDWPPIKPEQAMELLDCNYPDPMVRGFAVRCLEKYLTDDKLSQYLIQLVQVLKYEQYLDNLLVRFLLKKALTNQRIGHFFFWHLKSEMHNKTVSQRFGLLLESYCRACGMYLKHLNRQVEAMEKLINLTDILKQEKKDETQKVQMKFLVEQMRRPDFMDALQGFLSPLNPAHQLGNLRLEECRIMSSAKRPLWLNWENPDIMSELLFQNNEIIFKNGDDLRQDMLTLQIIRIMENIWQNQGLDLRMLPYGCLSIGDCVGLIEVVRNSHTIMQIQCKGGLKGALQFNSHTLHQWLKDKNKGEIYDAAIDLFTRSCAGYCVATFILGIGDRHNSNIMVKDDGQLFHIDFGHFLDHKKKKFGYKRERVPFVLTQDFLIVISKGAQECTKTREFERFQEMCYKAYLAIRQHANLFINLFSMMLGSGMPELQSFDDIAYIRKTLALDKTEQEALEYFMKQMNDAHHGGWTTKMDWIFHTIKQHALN

[27] = target: Phosphatidylinositol 4,5-bisphosphate 3-kinase catalytic subunit beta isoform (Homo sapiens) (UniProt P42338); conditions: Compound concentration 1000.0 nM
[28] = target: Serine/threonine-protein kinase PknB (Mycobacterium tuberculosis) (UniProt P9WI81); conditions: Compound concentration 1000.0 nM
Sequence of Serine/threonine-protein kinase PknB (Mycobacterium tuberculosis) (P9WI81 whole entry): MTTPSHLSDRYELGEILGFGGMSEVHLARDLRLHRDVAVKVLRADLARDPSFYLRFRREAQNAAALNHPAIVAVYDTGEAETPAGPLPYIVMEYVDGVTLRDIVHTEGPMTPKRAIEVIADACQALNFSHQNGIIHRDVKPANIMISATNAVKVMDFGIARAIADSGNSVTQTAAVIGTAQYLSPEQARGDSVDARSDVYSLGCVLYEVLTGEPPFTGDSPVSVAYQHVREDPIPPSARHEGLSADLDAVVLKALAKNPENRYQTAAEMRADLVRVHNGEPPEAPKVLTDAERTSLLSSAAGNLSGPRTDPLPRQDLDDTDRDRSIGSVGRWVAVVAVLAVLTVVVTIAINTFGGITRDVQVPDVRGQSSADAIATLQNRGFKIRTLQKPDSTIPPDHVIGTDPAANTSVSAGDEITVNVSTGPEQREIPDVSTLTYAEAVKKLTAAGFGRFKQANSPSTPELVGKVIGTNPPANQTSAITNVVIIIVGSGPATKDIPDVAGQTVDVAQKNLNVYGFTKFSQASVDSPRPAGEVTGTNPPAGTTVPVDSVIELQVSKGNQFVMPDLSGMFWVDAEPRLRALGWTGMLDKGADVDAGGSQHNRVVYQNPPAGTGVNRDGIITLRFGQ

[29] = target: Serine/threonine-protein kinase PLK4 (Homo sapiens) (UniProt O00444); conditions: Compound concentration 1000.0 nM
[30] = target: Protein kinase C iota type (Homo sapiens) (UniProt P41743); conditions: Compound concentration 1000.0 nM
[31] = target: Rho-associated protein kinase 2 (Homo sapiens) (UniProt O75116); conditions: Compound concentration 1000.0 nM
[32] = target: Proto-oncogene tyrosine-protein kinase Src (Homo sapiens) (UniProt P12931); conditions: Compound concentration 1000.0 nM
Sequence of Proto-oncogene tyrosine-protein kinase Src (Homo sapiens) (P12931 2-536 limits assumed): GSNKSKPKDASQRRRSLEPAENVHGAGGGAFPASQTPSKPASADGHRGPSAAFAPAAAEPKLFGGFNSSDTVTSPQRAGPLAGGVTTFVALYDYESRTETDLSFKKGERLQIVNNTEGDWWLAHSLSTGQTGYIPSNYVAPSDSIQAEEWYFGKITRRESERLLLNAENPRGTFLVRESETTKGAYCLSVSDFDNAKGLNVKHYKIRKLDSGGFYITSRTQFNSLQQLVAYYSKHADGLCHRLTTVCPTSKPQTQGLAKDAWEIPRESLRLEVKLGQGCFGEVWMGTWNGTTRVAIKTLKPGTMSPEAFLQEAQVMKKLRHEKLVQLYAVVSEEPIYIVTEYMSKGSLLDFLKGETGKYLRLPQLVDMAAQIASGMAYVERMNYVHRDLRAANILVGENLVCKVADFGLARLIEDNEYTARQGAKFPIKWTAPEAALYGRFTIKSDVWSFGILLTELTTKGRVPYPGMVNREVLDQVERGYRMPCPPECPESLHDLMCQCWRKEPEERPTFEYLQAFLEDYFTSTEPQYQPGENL

| Compound | % Inhibition of Control Specific Binding (Mean n=2) [1] | % Inhibition of Control Specific Binding (Mean n=2) [2] | % Inhibition of Control Specific Binding (Mean n=2) [3] | % Inhibition of Control Specific Binding (Mean n=2) [4] | residual activity [5] | residual activity [6] | residual activity [7] | residual activity [8] | residual activity [9] | residual activity [10] | residual activity [11] | residual activity [12] | residual activity [13] | residual activity [14] | residual activity [15] | residual activity [16] | residual activity [17] | residual activity [18] | residual activity [19] | residual activity [20] | also measured |
| --- | --- | --- | --- | --- | --- | --- | --- | --- | --- | --- | --- | --- | --- | --- | --- | --- | --- | --- | --- | --- | --- |
| CCCOc1ccc([C@@H]2[C@@H](C(=O)O)[C@H](c3ccc4c(c3)OCO4)CN2CC(=O)Nc2c(CC)cccc2CC)cc1 [A-1806262] | 3.7% | 8.2% | -7.1% | 5.2% | 96% | 96% | 100% | 100% | 96% | 89% | 87% | 100% | 89% | 100% | 100% | 88% | 100% | 88% | 100% | 85% | residual activity [21]: 95%; residual activity [22]: 97%; residual activity [23]: 81%; residual activity [24]: 93%; residual activity [25]: 83%; residual activity [26]: 80%; residual activity [27]: 92%; residual activity [28]: 98%; residual activity [29]: 82%; residual activity [30]: 80%; residual activity [31]: 84%; residual activity [32]: 100% |
| CCCOc1ccc([C@H]2[C@H](C(=O)O)[C@@H](c3ccc4c(c3)OCO4)CN2CC(=O)Nc2c(CC)cccc2CC)cc1 [A-192621] | 5% | 1.4% | -8.8% | -7.7% | 100% | 80% | 100% | 100% | 84% | 100% | 75% | 87% | 51% | 73% | 86% | 89% | 100% | 94% | 87% | 74% | residual activity [21]: 93%; residual activity [22]: 87%; residual activity [23]: 71%; residual activity [24]: 91%; residual activity [25]: 77%; residual activity [26]: 69%; residual activity [27]: 73%; residual activity [28]: 78%; residual activity [29]: 78%; residual activity [30]: 78%; residual activity [31]: 69%; residual activity [32]: 99% |
